The species entered for one assay is Homo sapiens. The assay is described as follows: Compound was tested for its ability to inhibit human neutrophil degranulation induced by LTB4. Format: functional.
The target in assay [1] is Leukotriene B4 receptor 1 (Homo sapiens, UniProt Q15722). Put plainly: Compound was tested for its antagonist activity in a LTB4 human neutrophil receptor binding assay using the natural ligand itself.
Leukotriene B4 receptor 1, sequence (Q15722 whole entry): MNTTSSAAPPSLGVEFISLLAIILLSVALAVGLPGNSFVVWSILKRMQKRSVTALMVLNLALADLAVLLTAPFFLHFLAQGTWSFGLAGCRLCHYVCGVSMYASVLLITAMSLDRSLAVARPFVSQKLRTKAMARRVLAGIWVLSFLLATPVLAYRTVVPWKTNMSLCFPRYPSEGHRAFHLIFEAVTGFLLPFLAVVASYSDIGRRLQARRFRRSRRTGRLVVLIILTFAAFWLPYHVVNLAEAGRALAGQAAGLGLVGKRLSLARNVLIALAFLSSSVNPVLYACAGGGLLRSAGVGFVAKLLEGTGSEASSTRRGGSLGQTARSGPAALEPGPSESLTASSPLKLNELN

As to `CCCCC/C=C\C[C@@H](C)/C=C/C=C/C=C/[C@@H](O)CCCC(=O)O`, the IC50 – broadly, the midpoint of a concentration-inhibition curve – came out at 3.4 µM in the assay listed under Homo sapiens and 3.8 µM in assay [1].

For the origin of these results see ChEMBL document CHEMBL1125981, “Enantioselective total synthesis and pharmacologic profile of 12-deoxy-12(S)-methyl leukotriene B4” (Bioorg Med Chem Lett, 1991).
